Assay results: US20240343821A1, “OFATUMUMAB FOR TREATING PEDIATRIC MS” (NOVARTIS AG, priority 2021, published 2024)

Key:
Type in all cases: in vivo, human
[1] = Multiple Sclerosis Impact Scale (MSIS-29) under ofatumumab; conditions: administration of ofatumumab
Experimental: The MSIS-29 version 2 is a 29-item, self-administered questionnaire that includes 2 domains: physical and psychological. Responses were captured on a 4-point ordinal scale ranging from 1 (not at all) to 4 (extremely), with higher scores reflecting greater impact on day-to-day life. The MSIS-29 takes about 5 minutes to complete and the questions are designed to determine the patient's views about the impact of MS on their day-to-day life during the past 2 weeks. Reference is made to Hobart J and Cano S (2009), “Improving the evaluation of therapeutic interventions in multiple sclerosis: the role of new psychometric methods”, Health Technol Assess; 13(12):iii, ix-x, […] to Hobart J, Lamping D, Fitzpatrick R, et al (2001), “The Multiple Sclerosis Impact Scale (MSIS-29): a new patient-based outcome measure”, Brain; 124(Pt 5):962-73.

[2] = Ofatumumab half-life at steady state after subcutaneous administration; conditions: following subcutaneous administration of repeated 20 mg doses
Experimental: The half-life of ofatumumab at steady state can be approximately 16 days, in particular following subcutaneous administration of repeated 20 mg doses.

[3] = Immunoglobulin (IgG) levels under long-term ofatumumab therapy; conditions: in the long run, long-term treatment
Text: Generally, side effects and adverse events associated with B cell-depleting therapies such as ocrelizumab therapy are reported to be associated with a reduction of immunoglobulins (e.g. IgG).

B cells = experiment: B cell depletion under the claimed ofatumumab dosage regimen; conditions: loading dose weeks 0, 1, 2; maintenance from week 8 every six weeks
Text: This has been completely surprising because there are significant differences between adult patients and pediatric patients. These differences relate, inter alia, to physiology, metabolism, and body weight. In this context, it is also noted that there is a higher baseline B cell count in children compared to adults and, therefore, it would not have been expected that the claimed dosage regimen is able to consistently deplete B cells in patients as defined in the claims.

## Ofatumumab
[1]
  MS impact scale MSIS-29: advantageous reduction
[2]
  half-life at steady state: approximately 16 days
[3]
  reduction of immunoglobulins (e.g. IgG): does not cause reduction of immunoglobulins
B cells
  depletion of B cells (B cell count threshold): < 8 cells per microliter
